IC50 data for 13 compounds are collected here from patent publication US12570655B2, “Cysteine covalent modifiers of AKT1 and uses thereof” (Terremoto Biosciences, Inc., priority 2023, dated 2026).

What all share (format): cell-based
The target of assay [1] is T1, AKT1 WT (Homo sapiens, UniProt P31749).
T1 construct: expressed in transfected cells; host or cells: HEK293
The assay can be described thus: Live cell AKT1 WT target engagement by NanoBRET competitive probe displacement. The following applies: HEK293 cells transfected with kinase-NanoLuciferase fusion, 2 h at 37° C. The procedure, abridged:
(§1)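 Live-cell competitive tracer displacement in HEK293 expressing NanoLuciferase-tagged kinase. Compound and ATP-competitive tracer (~EC50) are co-incubated 2 h at 37 °C; BRET (E600/E460) gives IC50.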

Assay [2] concerns LAPC4 prostate cancer cells. The assay can be described thus: Antiproliferative effects in LAPC4 cells (CellTiter Glo). The following applies: LAPC4 cells (AKT1 E17K allele), read-out: LAPC4 proliferation IC50. The procedure, abridged: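 Cells grown in IMDM supplemented with 12% FBS plus 1% P/S were treated for 72 h with DMSO-dissolved compounds. ATP-based luminescence was fitted to a log(inhibitor) versus response Hill model, giving IC50.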
In general terms: Cellular ATP, detected with luciferase, serves as a proxy for viable cell number.

The target in assay [3] is T2, AKT1 E17K (Homo sapiens, UniProt P31749, E17K).
T2 construct: expressed in transfected cells; host or cells: HEK293
Briefly: Live cell AKT1 E17K target engagement by NanoBRET competitive probe displacement. The following applies: HEK293 cells transfected with kinase-NanoLuciferase fusion, 2 h at 37° C. The procedure, abridged: as §1
(In general: BRET reads energy transfer from a luciferase to a nearby fluorophore.)

Assay [4] addresses T3, AKT2 (Homo sapiens, UniProt P31751).
T3 construct: expressed in transfected cells; host or cells: HEK293
The assay can be described thus: Live cell AKT2 target engagement by NanoBRET competitive probe displacement. The following applies: HEK293 cells transfected with kinase-NanoLuciferase fusion, 2 h at 37° C. The procedure, abridged:
as §1

Like-named read-outs stand apart in the source and are kept apart here.

T3 sequence (P31751 whole entry): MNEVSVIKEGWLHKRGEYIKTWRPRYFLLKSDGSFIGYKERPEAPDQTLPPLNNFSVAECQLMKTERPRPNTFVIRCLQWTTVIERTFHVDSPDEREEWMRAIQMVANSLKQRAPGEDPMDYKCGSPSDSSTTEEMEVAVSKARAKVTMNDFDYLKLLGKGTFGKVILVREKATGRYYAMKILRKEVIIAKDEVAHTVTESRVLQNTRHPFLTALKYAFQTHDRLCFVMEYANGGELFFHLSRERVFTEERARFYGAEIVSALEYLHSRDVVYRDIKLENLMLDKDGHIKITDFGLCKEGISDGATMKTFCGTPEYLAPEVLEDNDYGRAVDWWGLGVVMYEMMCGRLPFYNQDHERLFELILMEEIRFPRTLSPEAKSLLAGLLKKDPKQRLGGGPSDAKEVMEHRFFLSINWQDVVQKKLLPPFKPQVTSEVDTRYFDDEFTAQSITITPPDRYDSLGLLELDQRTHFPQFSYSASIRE
T1 sequence (P31749 whole entry): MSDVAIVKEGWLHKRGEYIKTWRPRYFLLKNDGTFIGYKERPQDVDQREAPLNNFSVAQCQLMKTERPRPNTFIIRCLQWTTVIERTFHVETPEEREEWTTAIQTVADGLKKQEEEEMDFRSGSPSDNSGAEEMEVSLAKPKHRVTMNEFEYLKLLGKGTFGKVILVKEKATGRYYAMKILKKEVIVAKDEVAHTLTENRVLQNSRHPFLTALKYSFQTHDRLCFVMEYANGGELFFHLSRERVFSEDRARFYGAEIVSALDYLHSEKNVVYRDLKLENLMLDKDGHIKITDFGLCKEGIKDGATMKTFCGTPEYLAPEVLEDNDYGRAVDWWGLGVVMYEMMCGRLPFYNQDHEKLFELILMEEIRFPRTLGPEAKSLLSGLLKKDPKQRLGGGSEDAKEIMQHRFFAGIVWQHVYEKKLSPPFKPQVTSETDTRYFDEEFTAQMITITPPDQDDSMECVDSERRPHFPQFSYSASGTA
T2 sequence (P31749 whole entry E17K): as the sequence (P31749 whole entry) above, with E17K counted along it

As for `C=CC(=O)N1CCC(N[C@H]2CCc3cc(-n4c(-c5cccnc5N)nc5ccc(-c6cc7n(n6)CCOC7)nc54)ccc32)CC1` [Example 121, (S)-1-(4-((5-(2-(2-aminopyridin-3-yl)-5-(6,7-dihydro-4H-pyrazolo[5,1-c][1,4]oxazin-2-yl)-3H-imidazo[4,5-b]pyridin-3-yl)-2,3-dihydro-1H-inden-1-yl)amino)piperidin-1-yl)prop-2-en-1-one], the IC50 in assay [1] amounted to 43.3 nM; in assay [2] (Homo sapiens, LAPC4, 72 h) it was 248 nM; in assay [3], 174 nM; in assay [4], 358 nM.
As to `C=CC(=O)N1CCC(N[C@H]2CCc3cc(-n4c(-c5cccnc5F)nc5ccc(-n6cccn6)nc54)ccc32)CC1` [Example 251, 1-(4-{[(1S)-5-[2-(2-fluoropyridin-3-yl)-5-(pyrazol-1-yl)imidazo[4,5-b]pyridin-3-yl]-2,3-dihydro-1H-inden-1-yl]amino}piperidin-1-yl)prop-2-en-1-one], the IC50 in assay [1] was found to be 2160 nM; in assay [2] (Homo sapiens, LAPC4, 72 h), 2230 nM; in assay [3], 113 nM; in assay [4] it was 280 nM.
`C=CC(=O)N1CC2(CCCC(N[C@H]3CCc4cc(-n5c(-c6cccnc6N)nc6ccc(-n7cccn7)nc65)ccc43)C2)C1` (single isomer, unassigned) [Example 79, 1-((*)-6-(((S)-5-(2-(2-aminopyridin-3-yl)-5-(1H-pyrazol-1-yl)-3H-imidazo[4,5-b]pyridin-3-yl)-2,3-dihydro-1H-inden-1-yl)amino)-2-azaspiro[3.5]nonan-2-yl)prop-2-en-1-one]: the IC50 in assay [1] turned out to be 11.9 nM; in assay [2] (Homo sapiens, LAPC4, 72 h), 16.8 nM; in assay [3] it was 14.2 nM; in assay [4] it was 27.1 nM.
Turning to `CC#CC(=O)Nc1cccc(C(=O)N[C@H]2CCc3cc(-n4c(-c5cccnc5N)nc5ccc(-n6cccn6)nc54)ccc32)c1` [Example 12, (S)-N-(5-(2-(2-aminopyridin-3-yl)-5-(1H-pyrazol-1-yl)-3H-imidazo[4,5-b]pyridin-3-yl)-2,3-dihydro-1H-inden-1-yl)-3-(but-2-ynamido)benzamide], the IC50 in assay [1] amounted to 11.2 nM; in assay [2] (Homo sapiens, LAPC4, 72 h) it was 343 nM; in assay [3], 12.9 nM; in assay [4], 129 nM.
Taken in the same sequence, the figures for `C=CC(=O)N1CCC(N[C@H]2CCc3cc(-n4c(-c5cccnc5N)nc5ccc(-c6cccnc6)nc54)ccc32)CC1` [Example 110, (S)-1-(4-((5-(2-(2-aminopyridin-3-yl)-5-(pyridin-3-yl)-3H-imidazo[4,5-b]pyridin-3-yl)-2,3-dihydro-1H-inden-1-yl)amino)piperidin-1-yl)prop-2-en-1-one] were 21.8 nM, 298 nM, 141 nM and 628 nM.
For the compound `C=C(F)C(=O)Nc1cnn(C)c1C(=O)N[C@H]1CCc2cc(-n3c(-c4cccnc4N)nc4ccc(-n5cccn5)nc43)ccc21` [Example 35, (S)-N-(5-(2-(2-aminopyridin-3-yl)-5-(1H-pyrazol-1-yl)-3H-imidazo[4,5-b]pyridin-3-yl)-2,3-dihydro-1H-inden-1-yl)-4-(2-fluoroacrylamido)-1-methyl-1H-pyrazole-5-carboxamide], the IC50 in assay [1] is 243 nM; in assay [2] (Homo sapiens, LAPC4, 72 h), 5660 nM; in assay [3], over 1000 nM; in assay [4], 2940 nM.
Regarding `C=CC(=O)N1CCC(N[C@@H]2c3ccc(-n4c(-c5cccnc5N)nc5ccc(-c6ccn(C(F)F)n6)nc54)cc3CC2F)CC1` (stereo partly drawn) [Example 310, 1-(4-(((1R,2*)-5-(2-(2-aminopyridin-3-yl)-5-(1-(difluoromethyl)-1H-pyrazol-3-yl)-3H-imidazo[4,5-b]pyridin-3-yl)-2-fluoro-2,3-dihydro-1H-inden-1-yl)amino)piperidin-1-yl)prop-2-en-1-one], the IC50 came out at 1480 nM in assay [1], 553 nM in assay [2] (72 h), 34.5 nM in assay [3] and 277 nM in assay [4].
As to `C=CC(=O)N1CCC(N[C@H]2CCc3cc(-n4c(-c5cccnc5N)nc5ccc(-n6cccn6)nc54)ccc32)C(O)C1` (single isomer, unassigned) [Example 141, 1-[(3*,4*)-4-{[(1S)-5-[2-(2-aminopyridin-3-yl)-5-(pyrazol-1-yl)imidazo[4,5-b]pyridin-3-yl]-2,3-dihydro-1H-inden-1-yl]amino}-3-hydroxypiperidin-1-yl]prop-2-en-1-one], the IC50 turned out to be 148 nM in assay [1], 1700 nM in assay [2] (72 h), 554 nM in assay [3] and 872 nM in assay [4].
Consider `C=CC(=O)N(C)Cc1ccccc1C(=O)N[C@H]1CCc2cc(-n3c(-c4cccnc4N)nc4ccc(-n5cccn5)nc43)ccc21` [Example 265, (S)-N-(5-(2-(2-aminopyridin-3-yl)-5-(1H-pyrazol-1-yl)-3H-imidazo[4,5-b]pyridin-3-yl)-2,3-dihydro-1H-inden-1-yl)-2-((N-methylacrylamido)methyl)benzamide], for which the IC50 in assay [1] stood at 89.6 nM; in assay [2] (Homo sapiens, LAPC4, 72 h) it was 101 nM; in assay [3], 10.2 nM; in assay [4] it was 24.6 nM.
The like results for `C=CC(=O)N1CC2(CC(N[C@H]3CCc4cc(-n5c(-c6cccnc6N)nc6ccc(-n7cccn7)nc65)ccc43)C2)C1` [Example 31, 1-(6-{[(1S)-5-[2-(2-aminopyridin-3-yl)-5-(pyrazol-1-yl)imidazo[4,5-b]pyridin-3-yl]-2,3-dihydro-1H-inden-1-yl]amino}-2-azaspiro[3.3]heptan-2-yl)prop-2-en-1-one] were, in that order, 12.9 nM, 30.8 nM, 12.6 nM and 57.9 nM.
Regarding `C=CC(=O)N1CCC(N[C@H]2CCc3cc(-n4c(-c5cccnc5N)nc5ccc(-n6cccn6)nc54)ccc32)C1` (single isomer, unassigned) [Example 57, 1-((*)-3-(((S)-5-(2-(2-aminopyridin-3-yl)-5-(1H-pyrazol-1-yl)-3H-imidazo[4,5-b]pyridin-3-yl)-2,3-dihydro-1H-inden-1-yl)amino)pyrrolidin-1-yl)prop-2-en-1-one], the IC50 was found to be 10.4 nM in assay [1], 104 nM in assay [2] (72 h), 21.9 nM in assay [3] and 84.6 nM in assay [4].
In the case of `C=CC(=O)N1CCC(N[C@H]2CCc3cc(-n4c(-c5cccnc5N)nc5cc(C(F)(F)F)cnc54)ccc32)CC1` [Example 216, 1-(4-{[(1S)-5-[2-(2-aminopyridin-3-yl)-6-(trifluoromethyl)imidazo[4,5-b]pyridin-3-yl]-2,3-dihydro-1H-inden-1-yl]amino}piperidin-1-yl)prop-2-en-1-one], the IC50 in assay [1] is 2350 nM; in assay [2] (Homo sapiens, LAPC4, 72 h), 3960 nM; in assay [3], 140 nM; in assay [4] it was 352 nM.
Consider `C=CC(=O)N1CCC(N[C@@H]2c3ccc(-n4c(-c5cccnc5N)nc5ccc(-n6ccc(C7CC7)n6)nc54)cc3CC2F)CC1` (single isomer, unassigned) [Example 297, 1-(4-(((1R,2*)-5-(2-(2-aminopyridin-3-yl)-5-(3-cyclopropyl-1H-pyrazol-1-yl)-3H-imidazo[4,5-b]pyridin-3-yl)-2-fluoro-2,3-dihydro-1H-inden-1-yl)amino)piperidin-1-yl)prop-2-en-1-one], for which the IC50 worked out at 588 nM in assay [1]; 509 nM in assay [2] (Homo sapiens, LAPC4, 72 h); 23.8 nM in assay [3]; 108 nM in assay [4].
